Measured values published in patent publication US20230382940A1, “ANTIVIRAL COMPOUNDS AND METHODS OF MAKING AND USING THE SAME” (Gilead Sciences, Inc., priority 2022, published 2023).
pEC50: −log10 of the molar value.

Legend:
Assay type in all cases: cell-based
[1] = test system: Human Rhinovirus 1B (HRV1B); assay: H1-HeLa HRV-CTG 384-well assay, HRV1B, Example X; conditions: Rhinovirus A, 96 h; H1-HeLa cells, HRV1B MOI 0.5, 4 days, Celltiter-Glo; read-out: EC50 H1-HeLa_HRV 1B_HRV-CTG 384-well Assay (per Ex. X)
How it was run: (§1)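 H1-HeLa cells (5,000/well, DMEM 2% FBS) infected with HRV1B, HRV14 or HRV16 at MOI 0.5, 1.0 and 0.25 respectively, with 10-point 1:3 compound dilutions; 4 days at 37 °C. Viability by CellTiter-Glo luminescence, normalized to rupintrivir and DMSO controls; EC50 by non-linear regression.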

[2] = test system: Respiratory syncytial virus recombinant with luciferase (RSV-Luc5); assay: HEp-2 RSV-Luc5 384-well assay (EC50 RSVFLUC Hep2-384 v2), Example V; conditions: human respiratory syncytial virus, HEp-2, 72 h, read-out: EC50 RSV FLuc Hep-2 384 V2 (per Ex. V)
How it was run: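 HEp-2 cells (4,000/well) seeded onto spotted compounds (10-point, 1:3 dilutions) and infected with RSV-Luc5 at MOI 0.5. After 3 days at 37 °C, luciferase read with One-Glo. Signal normalized to remdesivir (0%) and DMSO (100% replication) controls; EC50 from non-linear regression.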

[3] = test system: Human Rhinovirus 14 (HRV14); assay: H1-HeLa HRV-CTG 384-well assay, HRV14, Example X; conditions: Rhinovirus B, 96 h; H1-HeLa cells, HRV14 MOI 1.0, 4 days, Celltiter-Glo; read-out: EC50 H1-HeLa_HRV 14_HRV-CTG 384-well Assay (per Ex. X)
How it was run: as §1

Row | Compound | pEC50 [1] | pEC50 [2] | pEC50 [3]
1 | N#C[C@]1(COC(=O)OCC2CCCC2)O[C@@H](c2ccc3c(N)ncnn23)[C@H](O)[C@@H]1O [Compound 30, ((2R,3S,4R,5S)-5-(4-aminopyrrolo[2,1-f][1,2,4]triazin-7-yl)-2-cyano-3,4-dihydroxytetrahydrofuran-2-yl)methyl (cyclopentylmethyl) carbonate] | 5.51 | 4.64 | 5.25
2 | CCC(CC)COC(=O)OC[C@@]1(C#N)O[C@@H](c2ccc3c(N)ncnn23)[C@H](O)[C@@H]1O [Compound 31, ((2R,3S,4R,5S)-5-(4-aminopyrrolo[2,1-f][1,2,4]triazin-7-yl)-2-cyano-3,4-dihydroxytetrahydrofuran-2-yl)methyl (2-ethylbutyl) carbonate] | 5.50 | 4.69 | 5.12
3 | N#C[C@]1(COC(=O)OCC2CC2)O[C@@H](c2ccc3c(N)ncnn23)[C@H](O)[C@@H]1O [Compound 32, ((2R,3S,4R,5S)-5-(4-aminopyrrolo[2,1-f][1,2,4]triazin-7-yl)-2-cyano-3,4-dihydroxytetrahydrofuran-2-yl)methyl (cyclopropylmethyl) carbonate] | 5.25 | 4.69 | 4.94
4 | N#C[C@]1(COC(=O)O[C@H]2CCOC2)O[C@@H](c2ccc3c(N)ncnn23)[C@H](O)[C@@H]1O [Compound 33, ((2R,3S,4R,5S)-5-(4-aminopyrrolo[2,1-f][1,2,4]triazin-7-yl)-2-cyano-3,4-dihydroxytetrahydrofuran-2-yl)methyl ((S)-tetrahydrofuran-3-yl) carbonate] | 5.06 | 4.60 | 4.81
5 | CCCOCCOC(=O)OC[C@@]1(C#N)O[C@@H](c2ccc3c(N)ncnn23)[C@H](O)[C@@H]1O [Compound 34, ((2R,3S,4R,5S)-5-(4-aminopyrrolo[2,1-f][1,2,4]triazin-7-yl)-2-cyano-3,4-dihydroxytetrahydrofuran-2-yl)methyl (2-propoxyethyl) carbonate] | 5.14 | 4.75 | 4.85
6 | CC(C)(C)CCOC(=O)OC[C@@]1(C#N)O[C@@H](c2ccc3c(N)ncnn23)[C@H](O)[C@@H]1O [Compound 35, ((2R,3S,4R,5S)-5-(4-aminopyrrolo[2,1-f][1,2,4]triazin-7-yl)-2-cyano-3,4-dihydroxytetrahydrofuran-2-yl)methyl (3,3-dimethylbutyl) carbonate] | 5.06 | 4.72 | 4.91
7 | N#C[C@]1(COC(=O)OC2CC3(CCC3)C2)O[C@@H](c2ccc3c(N)ncnn23)[C@H](O)[C@@H]1O [Compound 36, ((2R,3S,4R,5S)-5-(4-aminopyrrolo[2,1-f][1,2,4]triazin-7-yl)-2-cyano-3,4-dihydroxytetrahydrofuran-2-yl)methyl spiro[3.3]heptan-2-yl carbonate] | 5.23 | 4.85 | 4.97
8 | CC1(C)CC(OC(=O)OC[C@@]2(C#N)O[C@@H](c3ccc4c(N)ncnn34)[C@H](O)[C@@H]2O)C1 [Compound 37, ((2R,3S,4R,5S)-5-(4-aminopyrrolo[2,1-f][1,2,4]triazin-7-yl)-2-cyano-3,4-dihydroxytetrahydrofuran-2-yl)methyl (3,3-dimethylcyclobutyl) carbonate] | 5.17 | 4.67 | 4.69
9 | COC[C@@H](C)OC(=O)OC[C@@]1(C#N)O[C@@H](c2ccc3c(N)ncnn23)[C@H](O)[C@@H]1O [Compound 38, ((2R,3S,4R,5S)-5-(4-aminopyrrolo[2,1-f][1,2,4]triazin-7-yl)-2-cyano-3,4-dihydroxytetrahydrofuran-2-yl)methyl ((R)-1-methoxypropan-2-yl) carbonate] | 4.62 | 4.30 | 4.61
10 | N#C[C@]1(COC(=O)O[C@@H]2C[C@@H]3C[C@@H]3C2)O[C@@H](c2ccc3c(N)ncnn23)[C@H](O)[C@@H]1O [Compound 39, ((2R,3S,4R,5S)-5-(4-aminopyrrolo[2,1-f][1,2,4]triazin-7-yl)-2-cyano-3,4-dihydroxytetrahydrofuran-2-yl)methyl ((1R,3r,5S)-bicyclo[3.1.0]hexan-3-yl) carbonate] | 5.08 | 4.55 | 4.93
11 | C[C@H]1CC[C@H](OC(=O)OC[C@@]2(C#N)O[C@@H](c3ccc4c(N)ncnn34)[C@H](O)[C@@H]2O)CC1 [Compound 40, ((2R,3S,4R,5S)-5-(4-aminopyrrolo[2,1-f][1,2,4]triazin-7-yl)-2-cyano-3,4-dihydroxytetrahydrofuran-2-yl)methyl ((1r,4R)-4-methylcyclohexyl) carbonate] | 5.02 | 4.57 | 4.81
